Experimental data published in US8147818B2, “Hepatitis C virus inhibitors” (Bristol-Myers Squibb Company, priority 2008, dated 2012).

tested on: HCV 1b-377-neo replicon cells; assay: HCV Replicon assay, HCV 1b-377-neo replicon cells; format: cell-based, HCV 1b genotype; conditions: Hepatitis C virus, read-out: EC50 against HCV 1b (Activity or Range)
Protocol: An HCV Replicon assay was utilized in the present disclosure, and was prepared, conducted and validated as described in commonly owned PCT/US2006/022197 and in O'Boyle et. al. Antimicrob Agents Chemother. 2005 April; 49(4):1346-53.
HCV 1b-377-neo replicon cells were used to test the currently described compound series as well as cells resistant to compound A containing a Y2065H mutation in NS5A (described in application PCT/US2006/022197). The compounds tested were determined to have more than 10-fold less inhibitory activity on cells containing the mutation than wild-type cells indicating a related mechanism of action between the two compound series. Thus, the compounds of the present disclosure can be effective to inhibit the function of the HCV NS5A protein and are understood to be as effective in combinations as previously described in application PCT/US2006/022197 and commonly owned WO/O4014852. Further, the compounds of the present disclosure can be effective against the HCV 1b genotype. It should also be understood that the compounds of the present disclosure can inhibit multiple genotypes of HCV. […] In one embodiment compounds of the present disclosure are active against the 1a, 1b, 2a, 2b, 3a, 4a, and 5a genotypes.

In order of rising EC50:
1. COC(=O)N[C@H](C(=O)N1CC(F)(F)C[C@H]1c1ncc(-c2ccc(-c3ccc4c(c3)CCc3[nH]c([C@@H]5CCCN5C(=O)[C@@H](NC(=O)OC)C(C)C)nc3-4)cc2)[nH]1)C(C)C [Example 22t]  0.001 nM
2. COC(=O)N[C@H](C(=O)N1CCC[C@H]1c1ncc(-c2ccc(-c3ccc4c(c3)CCCc3[nH]c([C@@H]5CCCN5C(=O)[C@@H](NC(=O)OC)C(C)C)nc3-4)cc2F)[nH]1)C(C)C [Example 22g]  0.001 nM
3. COC(=O)N[C@H](C(=O)N(C)[C@@H](C)c1ncc(-c2ccc(-c3ccc4c(c3)CCCc3[nH]c([C@@H]5CCCN5C(=O)[C@@H](NC(=O)OC)C(C)C)nc3-4)cc2)[nH]1)C(C)C [Example 22e]  0.003 nM
4. COC(=O)N[C@H](C(=O)N1CCC[C@H]1c1ncc(-c2ccc(-c3ccc4c(c3)CCCc3[nH]c([C@@H]5CCCN5C(=O)[C@@H](NC(=O)OC)C(C)C)nc3-4)cc2)[nH]1)C(C)C [Example 22]  0.005 nM
5. CCN(CC)[C@@H](C(=O)N1CCC[C@H]1c1ncc(-c2ccc(-c3ccc4c(ccc5[nH]c([C@@H]6CCCN6C(=O)[C@@H](c6ccccc6)N(CC)CC)nc54)c3)cc2)[nH]1)c1ccccc1 [Example 22u.a]  0.01 nM
6. COC(=O)N[C@@H](C)C(=O)N1CCC[C@H]1c1ncc(-c2ccc(-c3ccc4c(c3)CCCc3[nH]c([C@@H]5CCCN5C(=O)[C@H](C)NC(=O)OC)nc3-4)cc2F)[nH]1 [Example 22g.2]  0.02 nM
7. COC(=O)N[C@H](C(=O)N1CCC[C@H]1c1nc2c([nH]1)CCCc1cc(-c3ccc(-c4cnc([C@@H]5CCCN5C(C)=O)[nH]4)cc3)ccc1-2)C(C)C [Example 24]  0.32 nM
8. COC(=O)N[C@H](C(=O)N1CCC[C@H]1c1ncc(-c2cccc(-c3ccc4c(c3)-c3nc([C@@H]5CCCN5C(=O)[C@@H](NC(=O)OC)C(C)C)[nH]c3CCC4)c2)[nH]1)C(C)C [Example 22j]  14 nM

same assay, conditions: Hepatitis C virus, read-out: EC50 against HCV 1b (Activity or Range), range class

`COC(=O)N[C@H](C(=O)N[C@@H](C)c1nc2c([nH]1)CCCc1cc(-c3ccc(-c4cnc([C@@H]5CCCN5C(=O)[C@@H](NC(=O)OC)C(C)C)[nH]4)cc3)ccc1-2)C(C)C` [Example 22c] and `COC(=O)N[C@H](C(=O)N[C@@H](C)c1ncc(-c2ccc(-c3ccc4c(c3)CCCc3[nH]c([C@@H]5CCCN5C(=O)[C@@H](NC(=O)OC)C(C)C)nc3-4)cc2)[nH]1)C(C)C` [Example 22f] fall in the same range of EC50: 0.001 to 0.1 nM for the first, 0.001 to 0.1 nM for the second.

`COC(=O)N[C@H](C(=O)N1CCC[C@H]1c1ncc(-c2ccc(-c3ccc4c(c3)CCCc3c-4nc([C@@H]4CCCN4C(=O)[C@@H](NC(=O)OC)C(C)C)n3O)cc2)[nH]1)C(C)C` [Example 22n] and `COC(=O)N[C@H](C(=O)N1CCC[C@H]1c1ncc(-c2ccc(-c3ccc4c(c3)CCCCc3[nH]c([C@@H]5CCCN5C(=O)[C@@H](NC(=O)OC)C(C)C)nc3-4)cc2)[nH]1)C(C)C` [Example 22x.1] fall in the same range of EC50: 0.001 to 0.1 nM for the first, 0.001 to 0.1 nM for the second.

`COC(=O)N[C@H](C(=O)N(C)[C@@H](C)c1nc2c([nH]1)CCOc1cc(-c3ccc(-c4cnc([C@@H]5CCCN5C(=O)[C@@H](NC(=O)OC)C(C)C)[nH]4)cc3)ccc1-2)C(C)C` [Example 22b.2] and `COC(=O)N[C@H](C(=O)N1CCC[C@H]1c1ncc(-c2ccc(-c3ccc4c(c3)CCc3[nH]c([C@@H]5CCCN5C(=O)[C@@H](NC(=O)OC)C(C)C)nc3-4)cc2)[nH]1)C(C)C` [Example 22r] fall in the same range of EC50: 0.001 to 0.1 nM for the first, 0.001 to 0.1 nM for the second.

`CCN(CC)[C@@H](C(=O)N1CCC[C@H]1c1ncc(-c2ccc(-c3ccc4c(c3)CCCc3c-4nc([C@@H]4CCCN4C(=O)[C@@H](c4ccccc4)N(CC)CC)n3O)cc2)[nH]1)c1ccccc1` [Example 22n.1] and `CCN(CC)[C@@H](C(=O)N1CCC[C@H]1c1ncc(-c2ccc(-c3ccc4c(c3)CCCCc3[nH]c([C@@H]5CCCN5C(=O)[C@@H](c5ccccc5)N(CC)CC)nc3-4)cc2)[nH]1)c1ccccc1` [Example 22x.1a] fall in the same range of EC50: 0.001 to 0.1 nM for the first, 0.001 to 0.1 nM for the second.

`COC(=O)N[C@H](C(=O)N1CCC[C@H]1c1ncc(-c2ccc(-c3ccc4c(ccc5[nH]c([C@@H]6CCCN6C(=O)[C@@H](NC(=O)OC)C(C)C)nc54)c3)cc2)[nH]1)C(C)C` [Example 22u] and `COC(=O)N[C@H](C(=O)N1CC(F)(F)C[C@H]1c1ncc(-c2ccc(-c3ccc4c(ccc5[nH]c([C@@H]6CCCN6C(=O)[C@@H](NC(=O)OC)C(C)C)nc54)c3)cc2)[nH]1)C(C)C` [Example 22w] fall in the same range of EC50: 0.001 to 0.1 nM for the first, 0.001 to 0.1 nM for the second.

Compared with `CCN(CC)[C@@H](C(=O)N1CCC[C@H]1c1ncc(-c2cccc(-c3ccc4c(c3)-c3nc([C@@H]5CCCN5C(=O)[C@@H](c5ccccc5)N(CC)CC)[nH]c3CCC4)c2)[nH]1)c1ccccc1` [Example 22j.1], `CCN(CC)[C@@H](C(=O)N1CCC[C@H]1c1ncc(-c2ccc(-c3ccc4c(c3)CCCc3[nH]c([C@@H]5CCCN5C(=O)[C@@H](c5ccccc5)N(CC)CC)nc3-4)cc2F)[nH]1)c1ccccc1` [Example 22g.1] is lower in EC50: 1 to 99 nM for the first, 0.001 to 0.1 nM for the second.

`COC(=O)N[C@H](C(=O)N1[C@@H]2C[C@@H]2C[C@H]1c1nc2c([nH]1)CCc1cc(-c3ccc4c(c3)CCc3[nH]c([C@@H]5C[C@H]6C[C@H]6N5C(=O)[C@@H](NC(=O)OC)C(C)C)nc3-4)ccc1-2)C(C)C` [Example 22r.5] and `COC(=O)N[C@H](C(=O)N1CCC[C@H]1c1nc2c([nH]1)CCCc1cc(-c3ccc4c(c3)CCCc3[nH]c([C@@H]5CCCN5C(=O)[C@@H](NC(=O)OC)C(C)C)nc3-4)ccc1-2)C(C)C` [Example 22k] fall in the same range of EC50: 0.001 to 0.1 nM for the first, 0.001 to 0.1 nM for the second.

`COC(=O)N[C@H](C(=O)N1CCC[C@H]1c1ncc(-c2ccc(-c3ccc4c(ccc5[nH]c([C@@H]6CCCN6C(=O)[C@@H](NC(=O)OC)C(C)C)nc54)c3)cc2F)[nH]1)C(C)C` [Example 22v] and `COC(=O)N[C@H](C(=O)N1CCC[C@H]1c1ncc(-c2ccc(-c3ccc4c(ccc5[nH]c([C@@H]6CC(F)(F)CN6C(=O)[C@@H](NC(=O)OC)C(C)C)nc54)c3)cc2)[nH]1)C(C)C` [Example 22w.1] fall in the same range of EC50: 0.001 to 0.1 nM for the first, 0.001 to 0.1 nM for the second.

`CCN(CC)[C@@H](C(=O)N1[C@@H]2C[C@@H]2C[C@H]1c1ncc(-c2ccc(-c3ccc4c(c3)CCCc3[nH]c([C@@H]5C[C@H]6C[C@H]6N5C(=O)[C@@H](c5ccccc5)N(CC)CC)nc3-4)cc2)[nH]1)c1ccccc1` [Example 22c.3] and `CCN(CC)[C@@H](C(=O)N1CC(F)(F)C[C@H]1c1ncc(-c2ccc(-c3ccc4c(c3)CCc3[nH]c([C@@H]5CCCN5C(=O)[C@@H](c5ccccc5)N(CC)CC)nc3-4)cc2)[nH]1)c1ccccc1` [Example 22t.a] fall in the same range of EC50: 0.001 to 0.1 nM for the first, 0.001 to 0.1 nM for the second.

`CCN(CC)[C@@H](C(=O)N[C@@H](C)c1nc2c([nH]1)CCCc1cc(-c3ccc(-c4cnc([C@@H]5CCCN5C(=O)[C@@H](c5ccccc5)N(CC)CC)[nH]4)cc3)ccc1-2)c1ccccc1` [Example 22c.1] and `COC(=O)N[C@@H](C(=O)N1CCC[C@H]1c1ncc(-c2ccc(-c3ccc4c(c3)CCCc3[nH]c([C@@H]5CCCN5C(=O)[C@H](NC(=O)OC)c5ccccc5)nc3-4)cc2)[nH]1)c1ccccc1` [Example 22.3] fall in the same range of EC50: 0.001 to 0.1 nM for the first, 0.001 to 0.1 nM for the second.

`CCN(CC)[C@@H](C(=O)N1[C@@H]2C[C@@H]2C[C@H]1c1nc2c(ccc3cc(-c4ccc5c(ccc6nc([C@@H]7C[C@H]8C[C@H]8N7C(=O)[C@@H](NC(=O)OC)C(C)C)[nH]c65)c4)ccc32)[nH]1)c1ccccc1` [Example 24.2] and `CCN(CC)[C@@H](C(=O)N1CCC[C@H]1c1nc2c(ccc3cc(-c4ccc5c(ccc6nc([C@@H]7CCCN7C(=O)[C@@H](NC(=O)OC)C(C)C)[nH]c65)c4)ccc32)[nH]1)c1ccccc1` [Example 24.1] fall in the same range of EC50: 0.001 to 0.1 nM for the first, 0.001 to 0.1 nM for the second.

`COC(=O)N[C@@H](C)C(=O)N1CCC[C@H]1c1ncc(-c2ccc(-c3ccc4c(c3)CCCc3[nH]c([C@@H]5CCCN5C(=O)[C@H](C)NC(=O)OC)nc3-4)cc2)[nH]1` [Example 22.2] and `COC(=O)N[C@H](C(=O)N1CCC[C@H]1c1nc2c([nH]1)CCCc1cc(-c3ccc(-c4[nH]c([C@@H]5CCCN5C(=O)[C@@H](NC(=O)OC)C(C)C)nc4CCC(F)(F)F)cc3)ccc1-2)C(C)C` [Example 22a.4] fall in the same range of EC50: 0.001 to 0.1 nM for the first, 0.001 to 0.1 nM for the second.

`COC(=O)N[C@@H](C(=O)N1[C@@H]2C[C@@H]2C[C@H]1c1ncc(-c2ccc(-c3ccc4c(ccc5[nH]c([C@@H]6C[C@H]7C[C@H]7N6C(=O)[C@H](NC(=O)OC)c6ccccc6)nc54)c3)cc2F)[nH]1)c1ccccc1` [Example 22v.1b] and `COC(=O)N[C@@H](C(=O)N1[C@@H]2C[C@@H]2C[C@H]1c1nc2c(ccc3cc(-c4ccc5c(ccc6nc([C@@H]7C[C@H]8C[C@H]8N7C(=O)[C@H](NC(=O)OC)c7ccccc7)[nH]c65)c4)ccc32)[nH]1)c1ccccc1` [Example 22u.5a] fall in the same range of EC50: 0.001 to 0.1 nM for the first, 0.001 to 0.1 nM for the second.

`COC(=O)N[C@H](C(=O)N1[C@@H]2C[C@@H]2C[C@H]1c1ncc(-c2ccc(-c3ccc4c(ccc5[nH]c([C@@H]6C[C@H]7C[C@H]7N6C(=O)[C@@H](NC(=O)OC)C(C)C)nc54)c3)cc2F)[nH]1)C(C)C` [Example 22v.1] and `COC(=O)N[C@H](C(=O)N1[C@@H]2C[C@@H]2C[C@H]1c1nc2ccc3cc(-c4ccc5c(ccc6[nH]c([C@@H]7C[C@H]8C[C@H]8N7C(=O)[C@@H](NC(=O)OC)C7CCOCC7)nc65)c4)ccc3c2[nH]1)C(C)C` [Example 24.2b] fall in the same range of EC50: 0.001 to 0.1 nM for the first, 0.001 to 0.1 nM for the second.

Compound `COC(=O)N[C@H](C(=O)N1CC(F)(F)C[C@H]1c1ncc(-c2ccc(-c3ccc4c(ccc5[nH]c([C@@H]6CC(F)(F)CN6C(=O)[C@@H](NC(=O)OC)C(C)C)nc54)c3)cc2)[nH]1)C(C)C` [Example 22w.2] has an EC50 of 0.001 to 0.1 nM.
